Experimental data: patent US11866431B2, “Bicyclic compounds” (Vivace Therapeutics, Inc., priority 2018, dated 2024)

What follows are molecules tested on 8XTBD luciferase reporter (YAP reporter) in HEK293T cells (assay: YAP Reporter Assay). Conditions: Homo sapiens, HEK-293T, 24 h, read-out: Firefly Luciferase IC50 (μM).
Format: cell-based
Method: HEK293T cells stably transfected with 8XTBD luciferase reporter and pRLTK in 384-well plates were treated with the test compounds, starting from 3 μM (final concentration in assay plate), 1:3 dilution, and 10 points in quadruplicates. Post 24-hr incubation with compounds at 37° C. and 5% CO2, cells were lysed and 8XTBD-driven firefly luciferase and control TK-driven renilla luciferase activities were measured using Promega Dual-Luciferase Reporter Assay System.
Reagents: The reagents used for this study are: DMEM: Invitrogen #11960077, Dual-Glo Luciferase Assay System: Promega-E2980, Puromycin Dihydrochloride: Invitrogen-A1113803, 384-well plate: PerkinElmer-6007480, L-GLUTAMINE: Invitrogen-25030164, Hygromycin B: Invitrogen-10687010, and Penicillin-Streptomycin: Merk-TMS-AB2-C
Media: The media used for this assay were: Culture Medium: DMEM+1 ug/mL puromycin+200 ug/mL hygromycin (with 10% FBS+1 mM L-glutamine); and Assay Medium: DMEM (with 10% FBS+1 mM L-glutamine+1×P/S).
Cell Plating: The appropriate media was warmed at 37° C. by water bath: Culture Medium, Assay Medium, 1*D-PBS, 0.05% trypsin-EDTA. The cells were trypsinized after removing all media, then washed with 1*sterile D-PBS and then with 2 ml 0.05% trypsin-EDTA. The cells were then incubated at RT for one minute. Then 10 ml/75 cm2 flask Assay Medium was added to each flask. Using a 10 ml pipette, the cells were then gently resuspended in the media, until the clumps completely disappeared. The cells were then transferred into 50 ml centrifuge tubes and were centrifuged at 800 rpm for 5 mins. The medium was removed and the cells were resuspended with Assay Medium. An aliquot of cells was used to count the cell density (cells/ml). The cell suspension was then diluted with Assay Medium to a concentration of 6×10^4 cells/ml. 50 ul cells suspension was then plated to 384-well plate (PerkinElmer-6007480), 3×10^3 cells/well and the cells were incubated in an incubator at 37° C. 5% CO2.
Compound Treatment: In the afternoon (incubation of the plate with 3-4 hrs), the test compounds were added by Echo, starting from 3 uM (final concentration in the assay plate), 1:3 dilution, 10 points, quadruplicates. The plate was placed at 37° C. 5% CO2 incubator for 24 hrs.
Detection: The Dual-Glo Luciferase Reagent was prepared by transferring the contents of one bottle of Dual-Glo Luciferase Buffer to one bottle of Dual-Glo Luciferase Substrate to create the Dual-Glo Luciferase Reagent. Mixing was performed by inversion until the substrate was thoroughly dissolved. After mixing, the reagent was aliquoted into 15 ml tubes. In the afternoon (24 hrs post compound treatment), the DMEM+ medium in the 384 well plates were aspirated by Microplate Washer.
Measuring firefly luciferase activity: 20 ul Dual-Glo Luciferase Reagent was added to the 384-well plates. The plates were protected from light to prevent interference with the assay. The plates were shaken for 1 min followed centrifuging plates at 1000 rpm for 30 seconds. After waiting at least 10 minutes, the firefly luminescence was measured by Envision.
Measuring renilla luciferase activity: 20 ul Stop-Glo Reagent was added to the 384-well plates. The plates were shaken for 1 min and then centrifuged at 1000 rpm for 30 seconds. After waiting at least 10 minutes, the renilla luminescence was measured by Envision.
Compound IC50 and maximum inhibition on the firefly luciferase and renilla luciferase activities were reported separately.

Question: Which IC50 does the source give for `O=C(NCC(F)(F)F)c1ccc2c(-c3ccc(C(F)(F)F)cc3)cccc2c1` [Compound 54, N-(2,2,2-trifluoroethyl)-5-(4-(trifluoromethyl)phenyl)-2-naphthamide] here?
Answer: < 0.1 µM

Question: For `CC(C)NC(=O)c1ccc2c(-c3ccc(C(F)(F)F)cc3)cc3sc(N)nc3c2c1` [Compound 63, 2-amino-N-isopropyl-5-(4-(trifluoromethyl)phenyl)naphtho[1,2-d]thiazole-8-carboxamide], which IC50 is on record?
Answer: < 0.1 µM

Same assay, conditions: Homo sapiens, HEK-293T; HEK293T cells stably transfected with 8XTBD luciferase reporter and pRLTK; 24-hr incubation; top concentration 3 μM; read-out: Firefly Luciferase IC50

Question: How did the IC50 turn out when `CC(C)NC(=O)c1ccc2c(-c3ccc(C(F)(F)F)cc3)ccc(N(C)S(C)(=O)=O)c2c1` [Compound 34, N-isopropyl-8-(N-methylmethylsulfonamido)-5-(4-(trifluoromethyl)phenyl)-2-naphthamide] was run?
Answer: 1 to 3 µM

Question: `CC(C)NC(=O)c1ccc2c(-c3ccc(C(F)(F)F)cc3)cc3onnc3c2c1` [Compound 35, N-isopropyl-5-[4-(trifluoromethyl)phenyl]benzo[e][1,2,3]benzoxadiazole-8-carboxamide] was tested. Which IC50 did it give?
Answer: 0.1 to 1 µM

Question: For `CC(C)NC(=O)c1ccc2c(-c3ccc(C(F)(F)F)cc3)cc(Cl)cc2c1` [Compound 36, 7-chloro-N-isopropyl-5-(4-(trifluoromethyl)phenyl)-2-naphthamide], which IC50 is on record?
Answer: < 0.1 µM

Question: Which IC50 does the source give for `COc1ccc(-c2ccc(C(F)(F)F)cc2)c2ccc(C(=O)NC(C)C)cc12` [Compound 37, N-isopropyl-8-methoxy-5-[4-(trifluoromethyl)phenyl]naphthalene-2-carboxamide] here?
Answer: < 0.1 µM

Question: For `C#Cc1cc(-c2ccc(C(F)(F)F)cc2)c2ccc(C(=O)NC(C)C)cc2c1` [Compound 38, 7-ethynyl-N-isopropyl-5-(4-(trifluoromethyl)phenyl)-2-naphthamide], which IC50 is on record?
Answer: < 0.1 µM

Question: How did the IC50 turn out when `COc1cc(-c2ccc(C(F)(F)F)cc2)c2ccc(C(=O)NC(C)C)cc2c1` [Compound 39, N-isopropyl-7-methoxy-5-[4-(trifluoromethyl)phenyl]naphthalene-2-carboxamide] was run?
Answer: < 0.1 µM

Question: For `CC(=O)NCCOCCOCCNC(=O)c1ccc2c(-c3ccc(C(F)(F)F)cc3)cccc2c1` [Compound 40, N-(2-(2-(2-acetamidoethoxy)ethoxy)ethyl)-5-(4-(trifluoromethyl)phenyl)-2-naphthamide], which IC50 is on record?
Answer: < 0.1 µM

Question: With `Cc1cc(-c2ccc(C(F)(F)F)cc2)c2ccc(C(=O)NC(C)C)cc2c1` [Compound 41, N-isopropyl-7-methyl-5-(4-(trifluoromethyl)phenyl)-2-naphthamide] as the molecule, how does the IC50 read?
Answer: < 0.1 µM

Question: Which IC50 does the source give for `CSc1cc(-c2ccc(C(F)(F)F)cc2)c2ccc(C(=O)NC(C)C)cc2c1` [Compound 42, N-isopropyl-7-(methylthio)-5-(4-(trifluoromethyl)phenyl)-2-naphthamide] here?
Answer: < 0.1 µM

Question: How did the IC50 turn out when `CC(C)NC(=O)c1ccc2c(-c3ccc(C(F)(F)F)cc3)cc(C3CC3)cc2c1` [Compound 43, 7-cyclopropyl-N-isopropyl-5-[4-(trifluoromethyl)phenyl]naphthalene-2-carboxamide] was run?
Answer: < 0.1 µM

Question: `CC(C)NC(=O)c1ccc2c(-c3ccc(C(F)(F)F)cc3)cc(N)cc2c1` [Compound 44, 7-amino-N-isopropyl-5-[4-(trifluoromethyl)phenyl]naphthalene-2-carboxamide] was tested. Which IC50 did it give?
Answer: < 0.1 µM

Question: How did the IC50 turn out when `CC(C)NC(=O)c1ccc2c(-c3ccc(C(F)(F)F)cc3)cc([S+](C)[O-])cc2c1` (stereo not drawn) [Compound 45, N-isopropyl-7-methylsulfinyl-5-[4-(trifluoromethyl)phenyl]naphthalene-2-carboxamide] was run?
Answer: 0.1 to 1 µM

Question: How did the IC50 turn out when `CC(C)NC(=O)c1ccc2c(-c3ccc(C(F)(F)F)cc3)cc(S(C)(=O)=O)cc2c1` [Compound 46, N-isopropyl-7-methylsulfonyl-5-[4-(trifluoromethyl)phenyl]naphthalene-2-carboxamide] was run?
Answer: < 0.1 µM

Question: `CCc1cc(-c2ccc(C(F)(F)F)cc2)c2ccc(C(=O)NC(C)C)cc2c1` [Compound 47, 7-ethyl-N-isopropyl-5-(4-(trifluoromethyl)phenyl)-2-naphthamide] was tested. Which IC50 did it give?
Answer: < 0.1 µM

Question: With `CC(=O)Nc1cc(-c2ccc(C(F)(F)F)cc2)c2ccc(C(=O)NC(C)C)cc2c1` [Compound 48, 7-acetamido-N-isopropyl-5-(4-(trifluoromethyl)phenyl)-2-naphthamide] as the molecule, how does the IC50 read?
Answer: 0.1 to 1 µM

Question: How did the IC50 turn out when `CC(C)(C)OC(=O)NCCOCCOCCNC(=O)c1ccc2c(-c3ccc(C(F)(F)F)cc3)cccc2c1` [Compound 49, Tert-Butyl (2-(2-(2-(5-(4-(trifluoromethyl)phenyl)-2-naphthamido)ethoxy)ethoxy)ethyl)carbamate] was run?
Answer: 0.1 to 1 µM

Question: How did the IC50 turn out when `NCCOCCOCCNC(=O)c1ccc2c(-c3ccc(C(F)(F)F)cc3)cccc2c1` [Compound 50, N-(2-(2-(2-aminoethoxy)ethoxy)ethyl)-5-(4-(trifluoromethyl)phenyl)-2-naphthamide] was run?
Answer: 0.1 to 1 µM

Question: `CC(=O)N(C)c1cc(-c2ccc(C(F)(F)F)cc2)c2ccc(C(=O)NC(C)C)cc2c1` [Compound 51, N-isopropyl-7-(N-methylacetamido)-5-(4-(trifluoromethyl)phenyl)-2-naphthamide] was tested. Which IC50 did it give?
Answer: 0.1 to 1 µM

Question: `CC(C)NC(=O)c1ccc2c(-c3ccc(C(F)(F)F)cc3)cc(NS(C)(=O)=O)cc2c1` [Compound 52, N-isopropyl-7-(methylsulfonamido)-5-(4-(trifluoromethyl)phenyl)-2-naphthamide] was tested. Which IC50 did it give?
Answer: < 0.1 µM

Question: `CC(C)NC(=O)c1ccc2c(-c3ccc(C(F)(F)F)cc3)cc(N(C)S(C)(=O)=O)cc2c1` [Compound 53, N-isopropyl-7-(N-methylmethylsulfonamido)-5-(4-(trifluoromethyl)phenyl)-2-naphthamide] was tested. Which IC50 did it give?
Answer: 0.1 to 1 µM

Question: Which IC50 does the source give for `O=C(NC1CC1)c1ccc2c(-c3ccc(C(F)(F)F)cc3)cccc2c1` [Compound 55, N-cyclopropyl-5-(4-(trifluoromethyl)phenyl)-2-naphthamide] here?
Answer: < 0.1 µM

Question: For `O=C(NC(CO)CO)c1ccc2c(-c3ccc(C(F)(F)F)cc3)cccc2c1` [Compound 56, N-(1,3-dihydroxypropan-2-yl)-5-(4-(trifluoromethyl)phenyl)-2-naphthamide], which IC50 is on record?
Answer: < 0.1 µM

Question: For `COCCOCCNC(=O)c1ccc2c(-c3ccc(C(F)(F)F)cc3)cccc2c1` [Compound 57, N-(2-(2-methoxyethoxy)ethyl)-5-(4-(trifluoromethyl)phenyl)-2-naphthamide], which IC50 is on record?
Answer: 0.1 to 1 µM

Question: With `COCCNC(=O)c1ccc2c(-c3ccc(C(F)(F)F)cc3)cccc2c1` [Compound 58, N-(2-methoxyethyl)-5-(4-(trifluoromethyl)phenyl)-2-naphthamide] as the molecule, how does the IC50 read?
Answer: < 0.1 µM

Question: How did the IC50 turn out when `C[C@@H](CN)NC(=O)c1ccc2c(-c3ccc(C(F)(F)F)cc3)cccc2c1` [Compound 59, (S)—N-(1-aminopropan-2-yl)-5-(4-(trifluoromethyl)phenyl)-2-naphthamide] was run?
Answer: 0.1 to 1 µM

Question: How did the IC50 turn out when `C[C@H](CN)NC(=O)c1ccc2c(-c3ccc(C(F)(F)F)cc3)cccc2c1` [Compound 60, (R)—N-(1-aminopropan-2-yl)-5-(4-(trifluoromethyl)phenyl)-2-naphthamide] was run?
Answer: < 0.1 µM

Question: Which IC50 does the source give for `O=C(NC(CF)CF)c1ccc2c(-c3ccc(C(F)(F)F)cc3)cccc2c1` [Compound 62, N-(1,3-difluoropropan-2-yl)-5-(4-(trifluoromethyl)phenyl)-2-naphthamide] here?
Answer: 0.1 to 1 µM

Question: How did the IC50 turn out when `C[C@@H](CN(C)C)NC(=O)c1ccc2c(-c3ccc(C(F)(F)F)cc3)cccc2c1` [Compound 64, (S)—N-(1-(dimethylamino)propan-2-yl)-5-(4-(trifluoromethyl)phenyl)-2-naphthamide] was run?
Answer: 1 to 3 µM
